Tests used:
Assay in all cases: IA-DTB cysteine engagement, GluC + trypsin digest
Format in all cases: binding
Conditions in all cases: 22Rv1 cells
[1] = target: T1, SF3B1 1244 (Homo sapiens, UniProt O75533+Q7RTV0)
T1 construct: Cysteine engagement data from 22Rv1 cells treated; endogenous in cells; host or cells: 22Rv1
Protocol: (§1) Sample preparation: Cells (adherent: 15 cm dishes, suspension: 2 million cells/mL) were treated with electrophilic probes in situ for indicated times and concentrations, washed with ice-cold PBS, and flash frozen in liquid nitrogen. Cell pellets were lysed by sonication (8 pulses, 40% power) in 500 μL ice-cold PBS supplemented with cOmplete protease inhibitors (1 tablet/10 mL of PBS). Whole cell lysates protein content was measured using a standard DC protein assay (Bio-Rad) and 500 μL (2 mg/mL protein content) were treated with 5 μL of 10 mM 1A-DTB (in DMSO) for 1 h at ambient temperature with occasional vortexing. Samples were methanol-chloroform precipitated with the addition of 500 μL ice-cold MeOH and 200 μL CHCl3, vortexed, and centrifuged (10 min, 10,000 g). Without disrupting the protein disk, both top and bottom layers were aspirated and the protein disk was washed with 1 mL ice-cold MeOH and centrifuged (10 min, 10,000 g). The pellets were allowed to air dry, and then re-suspended in 90 μL buffer (9 M urea, 10 mM DTT, 50 mM TEAB pH 8.5). Samples were reduced by heating at 65 C for 20 minutes and water bath sonicated as needed to resuspend the protein pellets, followed by alkylation via addition of 10 μL (500 mM) iodoacetamide and incubated at 37 C for 30 min with shaking. Samples were briefly centrifuged, and probe sonicated once more to ensure complete resuspension, and then diluted with 300 μL buffer (50 mM TEAB pH 8.5) to reach final concentration of 2 M urea. […] Digested samples were then diluted with 300 μL wash buffer (50 mM TEAB pH 8.5, 150 mM NaCl, 0.2% NP-40) containing streptavidin-agarose beads (50 μL of 50% slurry in wash buffer) and were rotated at room temperature for 2 hours. Enriched samples were pelleted by centrifugation (2000 g, 2 min) and transferred to BioSpin columns and washed (3×1 mL wash buffer, 3×1 mL PBS, 3×1 mL water). Enriched peptides were eluted by 300 μL 50% acetonitrile with 0.1% formic acid and eluate was evaporated to dryness via speedvac. IA-DTB labeled and enriched peptides were resuspended in 100 μL EPPS buffer (200 mM, pH 8.0) with 30% acetonitrile, vortexed, and water bath sonicated. Samples were TMT labeled with 3 μL of corresponding TMT tag (5 mg tag resuspended in 256 μL acetonitrile), vortexed, and incubated at room temperature for 1 hour. TMT labeling was quenched with the addition of hydroxylamine (5 μL 5% solution in H2O) and incubated for 15 minutes at room temperature. Samples were then acidified with 5 μL formic acid, combined and dried using a SpeedVac. Samples were desalted via Sep-Pak and then high pH fractionated.
(§2) Data processing: Cysteine engagement ratios (probe vs DMSO) were calculated for each peptide-spectra match by dividing each TMT reporter ion intensity by the average intensity for the channels corresponding to DMSO treatment. Peptide-spectra matches were then grouped based on protein ID and residue number (e.g., PSME1 C22), […] ion intensities for the DMSO channels <10,000, coefficient of variation for DMSO channels >0.5, […] TMT reporter ion intensities were normalized to the median summed signal intensity across channels.
(§3) Samples were analyzed by liquid chromatography tandem mass-spectrometry using an Orbitrap Fusion mass spectrometer (Thermo Scientific) coupled to an UltiMate 3000 Series Rapid Separation LC system and autosampler (Thermo Scientific Dionex). The peptides were eluted onto a capillary column (75 μm inner diameter fused silica, packed with C18 (Waters, Acquity BEH C18, 1.7 μm, 25 cm)) or an EASY-Spray HPLC column (Thermo ES902, ES903) using an Acclaim PepMap 100 (Thermo 164535) loading column, and separated at a flow rate of 0.25 μL/min. Data was acquired using an MS3-based TMT method on Orbitrap Fusion or Orbitrap Eclipse Tribrid Mass Spectrometers. […]

[2] = target: T2, SF3B1 1035 (Homo sapiens, UniProt O75533+Q7RTV0)
T2 construct: Cysteine engagement data from 22Rv1 cells treated; endogenous in cells; host or cells: 22Rv1
Protocol: as §1, §2, §3

[3] = target: T3, SF3B1 933 (Homo sapiens, UniProt O75533+Q7RTV0)
T3 construct: Cysteine engagement data from 22Rv1 cells treated; endogenous in cells; host or cells: 22Rv1
Protocol: as §1, §2, §3

[4] = target: T4, SF3B1 965 (Homo sapiens, UniProt O75533+Q7RTV0)
T4 construct: Cysteine engagement data from 22Rv1 cells treated; endogenous in cells; host or cells: 22Rv1
Protocol: as §1, §2, §3

[5] = target: T5, PSME1 101 (Homo sapiens, UniProt Q06323)
T5 construct: stereoselectively engaged C22 of endogenous PSME1 in 22Rv1 cells; endogenous in cells; host or cells: 22Rv1
Protocol: as §1, §2, §3

[6] = target: T6, SF3B1 795 (Homo sapiens, UniProt O75533)
T6 construct: endogenous in cells; host or cells: 22Rv1
Protocol: as §1, §2, §3

[7] = target: T7, PSME1 106 (Homo sapiens, UniProt Q06323)
T7 construct: stereoselectively engaged C22 of endogenous PSME1 in 22Rv1 cells; endogenous in cells; host or cells: 22Rv1
Protocol: as §1, §2, §3

T5 sequence (Q06323 whole entry): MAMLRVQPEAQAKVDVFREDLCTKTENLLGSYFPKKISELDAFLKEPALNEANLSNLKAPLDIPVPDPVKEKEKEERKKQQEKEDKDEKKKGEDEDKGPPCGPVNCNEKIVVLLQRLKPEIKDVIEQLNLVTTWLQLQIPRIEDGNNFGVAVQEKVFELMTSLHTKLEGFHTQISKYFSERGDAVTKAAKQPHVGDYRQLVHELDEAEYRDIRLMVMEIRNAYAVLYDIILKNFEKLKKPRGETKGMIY
T7 sequence (Q06323 whole entry): as above
T3 sequence (O75533 whole entry): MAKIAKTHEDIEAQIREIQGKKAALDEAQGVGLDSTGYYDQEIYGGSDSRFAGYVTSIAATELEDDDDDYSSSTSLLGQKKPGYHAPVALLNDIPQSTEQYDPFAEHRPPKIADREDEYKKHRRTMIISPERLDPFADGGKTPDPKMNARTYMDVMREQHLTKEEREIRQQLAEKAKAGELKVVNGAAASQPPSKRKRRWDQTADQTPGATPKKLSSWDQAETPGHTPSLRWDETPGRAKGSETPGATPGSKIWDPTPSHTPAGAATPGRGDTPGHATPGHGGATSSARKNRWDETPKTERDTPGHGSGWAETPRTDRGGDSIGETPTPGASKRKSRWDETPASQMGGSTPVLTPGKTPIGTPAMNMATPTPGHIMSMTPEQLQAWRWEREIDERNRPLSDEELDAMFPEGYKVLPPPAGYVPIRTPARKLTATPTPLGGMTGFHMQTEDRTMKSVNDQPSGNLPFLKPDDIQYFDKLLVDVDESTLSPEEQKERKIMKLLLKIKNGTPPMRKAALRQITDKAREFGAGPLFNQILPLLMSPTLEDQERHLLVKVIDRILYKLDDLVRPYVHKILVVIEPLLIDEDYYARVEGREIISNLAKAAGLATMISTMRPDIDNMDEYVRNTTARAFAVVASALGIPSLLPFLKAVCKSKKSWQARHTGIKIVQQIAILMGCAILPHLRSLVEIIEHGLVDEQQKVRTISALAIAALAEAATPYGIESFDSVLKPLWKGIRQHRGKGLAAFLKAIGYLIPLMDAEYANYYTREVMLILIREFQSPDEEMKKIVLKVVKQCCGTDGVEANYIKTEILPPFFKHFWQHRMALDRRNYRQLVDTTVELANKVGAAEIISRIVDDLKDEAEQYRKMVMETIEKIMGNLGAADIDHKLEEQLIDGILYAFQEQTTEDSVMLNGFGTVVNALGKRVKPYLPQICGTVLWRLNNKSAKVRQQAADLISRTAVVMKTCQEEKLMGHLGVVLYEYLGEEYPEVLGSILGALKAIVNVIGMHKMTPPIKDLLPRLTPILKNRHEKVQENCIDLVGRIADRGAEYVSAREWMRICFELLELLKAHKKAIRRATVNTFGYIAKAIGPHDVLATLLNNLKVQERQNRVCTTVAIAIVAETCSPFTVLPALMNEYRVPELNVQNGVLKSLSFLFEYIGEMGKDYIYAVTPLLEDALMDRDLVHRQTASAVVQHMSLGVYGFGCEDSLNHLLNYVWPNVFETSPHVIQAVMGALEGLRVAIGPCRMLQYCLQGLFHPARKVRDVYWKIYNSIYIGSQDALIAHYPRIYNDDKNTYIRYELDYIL
T3 sequence (Q7RTV0 whole entry): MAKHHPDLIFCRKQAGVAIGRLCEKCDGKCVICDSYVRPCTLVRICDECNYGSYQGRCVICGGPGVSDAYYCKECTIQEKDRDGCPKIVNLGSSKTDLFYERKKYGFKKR
T3 sequence (Q15393 whole entry partner): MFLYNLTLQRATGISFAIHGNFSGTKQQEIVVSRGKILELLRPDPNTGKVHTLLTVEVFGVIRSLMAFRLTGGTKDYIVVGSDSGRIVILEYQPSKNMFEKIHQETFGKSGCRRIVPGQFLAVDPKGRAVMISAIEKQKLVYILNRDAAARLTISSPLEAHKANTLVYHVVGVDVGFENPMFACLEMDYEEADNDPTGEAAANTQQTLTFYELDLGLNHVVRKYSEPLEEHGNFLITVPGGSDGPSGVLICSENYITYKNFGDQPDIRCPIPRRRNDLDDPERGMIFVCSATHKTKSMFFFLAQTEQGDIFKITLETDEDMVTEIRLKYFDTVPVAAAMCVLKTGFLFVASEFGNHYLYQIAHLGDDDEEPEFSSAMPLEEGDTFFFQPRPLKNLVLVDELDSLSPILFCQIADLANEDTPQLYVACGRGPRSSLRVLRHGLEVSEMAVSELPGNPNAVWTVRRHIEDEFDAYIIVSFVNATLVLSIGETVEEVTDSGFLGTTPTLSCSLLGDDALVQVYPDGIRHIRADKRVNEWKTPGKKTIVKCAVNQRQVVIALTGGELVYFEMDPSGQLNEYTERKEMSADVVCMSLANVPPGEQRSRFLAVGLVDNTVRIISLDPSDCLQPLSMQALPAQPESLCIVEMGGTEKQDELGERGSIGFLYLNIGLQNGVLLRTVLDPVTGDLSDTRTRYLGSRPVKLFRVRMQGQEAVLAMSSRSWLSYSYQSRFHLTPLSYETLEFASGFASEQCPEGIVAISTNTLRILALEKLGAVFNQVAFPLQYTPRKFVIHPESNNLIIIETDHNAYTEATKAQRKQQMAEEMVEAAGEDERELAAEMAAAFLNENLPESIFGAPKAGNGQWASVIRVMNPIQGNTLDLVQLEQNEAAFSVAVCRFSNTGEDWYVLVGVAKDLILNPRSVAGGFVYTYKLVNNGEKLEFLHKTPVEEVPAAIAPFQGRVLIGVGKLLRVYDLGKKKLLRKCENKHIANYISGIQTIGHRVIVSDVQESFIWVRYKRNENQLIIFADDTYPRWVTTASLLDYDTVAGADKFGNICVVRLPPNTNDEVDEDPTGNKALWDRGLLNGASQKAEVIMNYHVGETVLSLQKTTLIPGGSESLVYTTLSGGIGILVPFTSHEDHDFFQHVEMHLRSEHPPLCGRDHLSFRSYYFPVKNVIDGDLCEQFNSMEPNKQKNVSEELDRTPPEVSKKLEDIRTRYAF
T3 sequence (Q9BWJ5 whole entry partner): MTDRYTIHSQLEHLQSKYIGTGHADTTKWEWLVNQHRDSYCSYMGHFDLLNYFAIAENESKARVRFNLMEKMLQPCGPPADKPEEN
T6 sequence (O75533 whole entry): as the sequence (O75533 whole entry) above
T1 sequence (O75533 whole entry): as above
T1 sequence (Q7RTV0 whole entry): as the sequence (Q7RTV0 whole entry) above
T1 sequence (Q15393 whole entry partner): as the sequence (Q15393 whole entry partner) above
T1 sequence (Q9BWJ5 whole entry partner): as the sequence (Q9BWJ5 whole entry partner) above
T4 sequence (O75533 whole entry): as the sequence (O75533 whole entry) above
T4 sequence (Q7RTV0 whole entry): as the sequence (Q7RTV0 whole entry) above
T4 sequence (Q15393 whole entry partner): as the sequence (Q15393 whole entry partner) above
T4 sequence (Q9BWJ5 whole entry partner): as the sequence (Q9BWJ5 whole entry partner) above
T2 sequence (O75533 whole entry): as the sequence (O75533 whole entry) above
T2 sequence (Q7RTV0 whole entry): as the sequence (Q7RTV0 whole entry) above
T2 sequence (Q15393 whole entry partner): as the sequence (Q15393 whole entry partner) above
T2 sequence (Q9BWJ5 whole entry partner): as the sequence (Q9BWJ5 whole entry partner) above

Row | percent engagement relative to DMSO, SF3B1 1244 ([1]; 5 uM) | percent engagement relative to DMSO, SF3B1 1244 ([1]; 20 uM) | percent engagement relative to DMSO, SF3B1 1035 ([2]; 5 uM) | percent engagement relative to DMSO, SF3B1 1035 ([2]; 20 uM) | percent engagement relative to DMSO, SF3B1 933 ([3]; 5 uM) | percent engagement relative to DMSO, SF3B1 933 ([3]; 20 uM) | percent engagement relative to DMSO, SF3B1 965 ([4]; 5 uM) | percent engagement relative to DMSO, SF3B1 965 ([4]; 20 uM) | percent engagement relative to DMSO, PSME1 101 ([5]; 5 uM) | percent engagement relative to DMSO, PSME1 101 ([5]; 20 uM) | percent engagement relative to DMSO, SF3B1 795 ([6]; 5 uM) | percent engagement relative to DMSO, SF3B1 795 ([6]; 20 uM) | percent engagement relative to DMSO, PSME1 106 ([7]; 5 uM) | percent engagement relative to DMSO, PSME1 106 ([7]; 20 uM) | Compound
1 | −1.065% | −1.615% | 1.53% | 8.13% | 6.345% | 2.595% | 1.985% | 13.895% | −9.325% | −5.635% | 5.715% | 3.145% | −7.69% | −20.355% | C=CC(=O)N1[C@@H](c2ccc3c(c2)OCO3)c2[nH]c3ccccc3c2C[C@@H]1C(=O)N1CCOCC1 [WX-02-43, 1-((1S,3R)-1-(benzo[d][1,3]dioxol-5-yl)-3-(morpholine-4-carbonyl)-1,3,4,9-tetrahydro-2H-pyrido [3,4-b]indol-2-yl)prop-2-en-1-one]
2 | −11.92% | −12.54% | −9.265% | −6.03% | −7.02% | −4.95% | −15.75% | −8.665% | −4.575% | −14.73% | −4.58% | −5.905% | −4.44% | −17.66% | C=CC(=O)N1[C@H](c2ccc3c(c2)OCO3)c2[nH]c3ccccc3c2C[C@H]1C(=O)N1CCOCC1 [WX-02-23, 1-((1R,3S)-1-(benzo[d][1,3]dioxol-S-yl)-3-(morpholine-4-carbonyl)-1,3,4,9-tetrahydro-2H-pyrido [3,4-b]indol-2-yl)prop-2-en-1-one]

From US20250034216A1, “STEREOSELECTIVE COVALENT LIGANDS FOR ONCOGENIC AND IMMUNOLOGICAL PROTEINS” (The Scripps Research Institute, priority 2021, published 2025)
